Calls of active or inactive are those of the source.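 Rule for the calls: active = EC50 at or below a set limit, with no effect in the paired counter-screen assay; inactive = the rest.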
target: Aedes aegypti neuropeptide Y-like receptor 7 (NPYLR7); experiment: agonists of mosquito NPYLR7 receptor, confirmation, cell-based, Aedes aegypti, hit validation, mosquito biting behavior (AID 1259427); details: HEK293T NPYLR7/Galpha15/GCaMP6s, calcium fluorescence;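 note: potency of agonists that activate the receptor and raise the calcium signal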

SMILES	EC50
CC(C)COCC(O)CN(Cc1cccn1C)CC1CCCO1 (stereo not drawn)	> 20 µM (inactive)
COc1ccc(OC)c(CCNc2nc3cnc(-c4ccc5c(c4)OCO5)cc3n2C)c1	8.34 µM
O=C(O)CN1C(=O)/C(=C\c2cc([N+](=O)[O-])cc(Br)c2O)SC1=S	inactive
CN(Cc1ccccc1)c1cc(Oc2cccc(Cl)c2)ncn1	> 20 µM (inactive)
C[n+]1c2cc(N)ccc2cc2ccc(N)cc21	< 0.039 µM (inactive)
COc1cc(C=C2N=C(c3ccc4c(c3)OCO4)OC2=O)cc2c1OCCO2	> 20 µM (inactive)
O=P1(Nc2cc(C(F)(F)F)ccc2Cl)C=C(c2ccccc2)OC(c2ccccc2)=C1	> 20 µM (inactive)
C[C@H](O)C(=O)C1=Nc2c(nc(N)[nH]c2=O)NC1	> 20 µM (inactive)
COc1ccc(N2CCN(c3cc(C(F)(F)F)nc(SCc4cccc(C(=O)NCc5ccccn5)c4)n3)CC2)cc1	> 20 µM (inactive)
O=C1NC(c2ccc3c(c2)OCO3)C(C(=O)c2ccccc2)C(O)(C(F)(F)F)N1 (stereo not drawn)	> 20 µM (inactive)
COc1ccc(C(=O)C=Cc2cc(Br)c(O)c(OC)c2)cc1F	inactive
NCCNc1ccc2c3c(cccc13)C(=O)N(c1ccc(Cl)cc1)C2=O	inactive
COc1ccc(S(=O)(=O)NCC2CCCN(C(=O)CSc3ccccc3)C2)cc1 (stereo not drawn)	11.3 µM
CCCc1[nH]n(-c2ccc(Cl)cc2)c(=O)c1/C=C1\NC(=O)N(Cc2ccc(C)cc2)C1=O	> 20 µM (inactive)
O=C(CNCc1ccccc1)N1CC(=O)N(c2cccc(Cl)c2)C1	> 20 µM (inactive)
CN1CCc2c(sc(NC(=O)Cc3ccccc3)c2-c2nc3ccccc3s2)C1	> 20 µM (inactive)
CCCCCN=C(N)NN=Cc1c[nH]c2ccc(OC)cc12	7.37 µM
N#C/C(=C/c1ccc(N2CCCCCC2)o1)c1ccc(F)cc1	> 20 µM (inactive)
CCOC(=O)c1c(-c2ccccc2)csc1N=Cc1nc(-c2ccccc2)oc1O	> 20 µM (inactive)
CCCCN(CC(=O)Nc1c(-c2ccccc2)c(C)nn1-c1ccccc1C)S(=O)(=O)c1ccc(F)cc1	> 20 µM (inactive)
Cc1c(NC(=O)COC(=O)C(C#N)=Cc2ccc(N(C)C)cc2)c(=O)n(-c2ccccc2)n1C	> 20 µM (inactive)
O=C(O)c1csc(CSc2nnc(Cc3ccccc3)n2-c2cccc(C(F)(F)F)c2)n1	> 20 µM (inactive)
CCCc1ccccc1N1C(=O)CSC1c1ccc(NC(=O)CCl)cc1 (stereo not drawn)	> 20 µM (inactive)
CCOC(=O)C1=C(C)NC(C)=C(C(=O)OCC)C1c1cc(Cl)ccc1OC(F)F	> 20 µM (inactive)
CN(Cc1cnc2ccccc2n1)C(=O)C1CC2(CCNCC2)CN1 (stereo not drawn)	> 20 µM (inactive)

SMILES	EC50
O=C1c2ccccc2C(=O)C1c1ccnc2ccccc12	> 20 µM (inactive)
CCc1nc(N=C(N)N)nc2cc(C)ccc12	7.66 µM
CCCCNC(=O)CCCCCNC(N)=O	> 20 µM (inactive)
N#Cc1cc(C(=O)c2cc(Cl)cc(Cl)c2O)cn(-c2nccs2)c1=O	14.4 µM
O=C(COc1ccccc1)N1CCCC(CNS(=O)(=O)c2cccs2)C1 (stereo not drawn)	13.2 µM
COc1cc(C=C(C#N)C(=O)OC(C)C)cc(Cl)c1O	> 20 µM (inactive)
CCN(CC)c1ccc(/C=C2/SC(=S)N(CC(=O)O)C2=O)cc1	inactive
CC[C@@]1(O)C(=O)OCc2c1cc1n(c2=O)Cc2cc3c(CN(C)C)c(O)ccc3nc2-1	inactive
N#Cc1cc2cc(Cl)cc(Cl)c2oc1=O	inactive
CCOc1cc(C=O)c(O)c(C=O)c1	inactive
O=C(NCCSc1ccc(Cl)cc1)c1ccc2c(=O)n3c(nc2c1)CCC3	> 20 µM (inactive)
O=c1oc2cc(O)ccc2cc1-c1nc2ccccc2s1	inactive
Nc1c2c(nc3sc4c(c13)CCCC4)CCCCC2	> 20 µM (inactive)
N#CC(=Cc1c(F)c(F)c(F)c(F)c1F)c1ccccn1	> 20 µM (inactive)
CCCS(=O)(=O)N1CCN=C1SCc1ccccc1C	> 20 µM (inactive)
O=C1OC2(c3cc(Br)c(O)cc3Oc3c2cc(Br)c(O)[c]3[Hg])c2ccccc21 (stereo not drawn)	< 0.039 µM (inactive)
O=C1c2cccc3c(NCCO)ccc(c23)C(=O)N1CCO	< 0.039 µM (inactive)
COc1ccc(/C=C2\Oc3c(ccc4c3CN(Cc3ccncc3)CO4)C2=O)cc1	inactive
CC(=O)OC(C)C[N+](C)(C)C (stereo not drawn)	> 20 µM (inactive)
CCOc1cc(/C=C(\C#N)c2nc3ncc(Br)cc3[nH]2)ccc1O	inactive
CS(=O)(=O)c1ccc(-c2cccc3c2OC(CNC(=O)c2cc[n+]([O-])cc2)C3)cc1 (stereo not drawn)	17.1 µM
Cc1nc(=O)c(-c2ccccc2)c(C)n1-c1ccccc1O	> 20 µM (inactive)
CC(C)OC(=O)C(C(=O)C(F)(F)F)c1cc(NS(=O)(=O)c2ccc(Cl)cc2)ccc1O (stereo not drawn)	> 20 µM (inactive)
O=c1[nH]c(SCCO)nc2sc3c(c12)CCCC3	> 20 µM (inactive)
CSCCC(C(=O)O)N1C(=O)/C(=C/c2ccc(O)cc2)SC1=S (stereo not drawn)	> 20 µM (inactive)

SMILES	EC50
CC1(C)OC2OC(C(O)c3cc(O)c4c(c3O)C(=O)c3ccccc3C4=O)C(C)(O)C2O1 (stereo not drawn)	inactive
CNC[C@H](O)c1ccc(O)c(O)c1	inactive
O=C1/C(=C/c2cccc(F)c2)Oc2c1ccc(O)c2CN1CCN(CCO)CC1	> 20 µM (inactive)
COc1ccc(Cl)cc1Nc1nnc(-c2cc3c(ccc4ccccc43)oc2=O)s1	> 20 µM (inactive)
O=[N+]([O-])c1cc(S(=O)(=O)Nc2cc(Cl)ccc2F)ccc1F	> 20 µM (inactive)
COc1ccc(OC)c(CCNc2nc3cnc(-c4cccc5ccccc45)cc3n2C)c1	12.4 µM
CC(C(=O)O)N1C(=O)/C(=C\c2ccc(O)cc2)SC1=S (stereo not drawn)	> 20 µM (inactive)
Cc1nn(C)c(Cl)c1/C=C1/CCCc2c1nc1ccccc1c2C(=O)O	19.2 µM
O=C(Cc1ccc2c(c1)CCC2)NCC1CCN(c2ccccc2)C1 (stereo not drawn)	> 20 µM (inactive)
CC1=NCCc2c1[nH]c1cc(O)ccc21	inactive
CCN1CC(=Cc2cc(C)n(C3CC3)c2C)C(=O)C(=Cc2cc(C)n(C3CC3)c2C)C1	> 20 µM (inactive)
O=c1cc(C(F)(F)F)c2ccc(O)cc2o1	inactive
O=C(CC(c1cccc([N+](=O)[O-])c1)c1c[nH]c2ccccc12)NC1CC1 (stereo not drawn)	> 20 µM (inactive)
CCOC(=O)C1CCCN(CC(=O)N2N=C(c3ccccc3Cl)CC2c2ccc(Cl)cc2)C1 (stereo not drawn)	> 20 µM (inactive)
COc1cc(NC(=O)N2CC(=O)N3CCc4c(F)cccc4C3C2)cc(OC)c1OC (stereo not drawn)	> 20 µM (inactive)
CC(=O)NCCc1ccc(O)c(O)c1	inactive
COc1cc(/C=C/c2nc3ccccc3o2)cc(Cl)c1O	inactive
CC1=CC(C)C(C(=O)O)C(C(=O)O)C1 (stereo not drawn)	> 20 µM (inactive)
CC(C)N=c1c([N+](=O)[O-])nn(-c2ccc(Cl)cc2)n1O	> 20 µM (inactive)
Cc1ccc(CN(C(=O)c2cc3cc(Cl)ccc3[nH]2)C(C)C)o1	> 20 µM (inactive)
CCOC(=O)c1ccc(N=c2oc3cc(O)ccc3cc2-c2nc3ccccc3[nH]2)cc1	inactive
O=C(c1snc2c(=O)n(Cc3ccccc3)c(=O)[nH]c12)N1CCSCC1	> 20 µM (inactive)
COc1ccc(-n2ccnc2-c2nc(-c3cccs3)oc2C)cn1	> 20 µM (inactive)

— PubChem BioAssay AID1259427 (Fisher Drug Discovery Resource Center, 2018)
